Results published in US20150366890A1, “COMPOSITIONS AND METHODS FOR TREATING FUNGAL INFECTIONS” (TRUSTEES OF BOSTON UNIVERSITY, priority 2013, published 2015).
Read-outs that look alike come from different tables or passages of the source.

Tests used:
Format in all cases: cell-based
S. cerevisiae = test: Mitochondrial activity by MitoTracker Red fluorescence
Procedure: It was next sought to assess the mitochondrial activity of AF-treated fungal cells. Yhe MitoTracker Red dye, which enters the mitochondrial matrix by utilizing the proton motive force and thus labels metabolically active mitochondria in viable cells was used (Arita et al., 2006; Tomas et al., 2011). Exponential phase S. cerevisiae were incubated in glucose-free synthetic complete (SC) media for 30 min and then switched to SC containing 2% glucose or non-fermentable acetate for 1.5 hours.
(§1) Overnight yeast cultures were diluted into the indicated media and grown to an OD600 of 0.2, at which point the AFs were added. Colony forming units (CFU) were measured by plating six serial dilutions onto YPD agar plates. Cells treated with MCZ were washed before serial dilution to stop growth inhibition associated with high concentrations of MCZ. CFU were counted after three days of incubation on agar plates. When indicated, thiourea (Fluka) was added 30 min prior to the addition of AFs. HPF (10 μM) (Invitrogen) and Mito Tracker (1 μM) (Invitrogen) dyes were added to PBS-washed cells at the indicated time points and incubated for 30 min prior to flow cytometry measurements, which were taken on the FACSCalibur (Becton-Dickinson). All experiments described in this section were conducted in 0.5 ml of SDC in 24-well plates incubated at 900 rpm and 37° C. for C. albicans and 30° C. and 300 rpm for S. cerevisiae. TUNEL assays were conducted as previously described (Ribeiro et al., 2006) and are described in detail in the TUNEL section of the Experimental Procedures.

[1] = system: S. cerevisiae wildtype and deletion strains
[2] = system: C. albicans wildtype and DNA repair mutants; test: Fungicidal killing, CFU assay; conditions: C. albicans rad50/rad50 and rad52/rad52, 3 hours of drug exposure
Procedure: Overnight yeast cultures were diluted into the indicated media and grown to an OD600 of 0.2, at which point the AFs were added. Colony forming units (CFU) were measured by plating six serial dilutions onto YPD agar plates.
as §1

Row | SMILES | MitoTracker fluorescence in acetate-incubated vs glucose-incubated cells (S. cerevisiae; S. cerevisiae, SC with non-fermentable acetate, 1.5 hours) | additive resistance on deleting the remaining citrate synthases in the cit3 background ([1]; S. cerevisiae CIT1/CIT2 deletions in cit3 background) | CFU (24-well colony forming assay), AF susceptibility vs wildtype ([1]; S. cerevisiae PAB103, SDH2 deletion) | CFU (24-well colony forming assay), AF susceptibility vs wildtype ([1]; S. cerevisiae PAB106, FMS1 deletion) | CFU (24-well colony forming assay), AF susceptibility vs wildtype ([1]; S. cerevisiae PAB107, NDE1 deletion) | CFU (24-well colony forming assay), AF susceptibility vs wildtype ([1]; S. cerevisiae PAB112, MNE1 deletion) | CFU (24-well colony forming assay), AF susceptibility vs wildtype ([1]; S. cerevisiae PAB113, FUM1 deletion) | CFU (24-well colony forming assay), AF susceptibility vs wildtype ([1]; S. cerevisiae PAB114, TPK2 deletion) | CFU (24-well colony forming assay), AF susceptibility vs wildtype ([1]; S. cerevisiae PAB119, CIT2 deletion) | CFU (24-well colony forming assay), AF susceptibility vs wildtype ([1]; S. cerevisiae PAB121, SDH1 deletion) | CFU (24-well colony forming assay), AF susceptibility vs wildtype ([1]; S. cerevisiae PAB122, TPK3 deletion) | CFU (24-well colony forming assay), AF susceptibility vs wildtype ([1]; S. cerevisiae PAB124, TPK1 deletion) | CFU (24-well colony forming assay), AF susceptibility vs wildtype ([1]; S. cerevisiae PAB132, CIT3 deletion) | CFU (24-well colony forming assay), AF susceptibility vs wildtype ([1]; S. cerevisiae PAB135, NDI1 deletion) | CFU (24-well colony forming assay), AF susceptibility vs wildtype ([1]; S. cerevisiae PAB145, CIT1 deletion) | CFU (24-well colony forming assay), AF susceptibility vs wildtype ([1]; S. cerevisiae PAB168, RAS1 deletion) | CFU (24-well colony forming assay), AF susceptibility vs wildtype ([1]; S. cerevisiae PAB171, RAS2 deletion) | reduction of killing at 3 hours by thiourea ([1]; S. cerevisiae, 50 mM thiourea for 30 minutes prior to the addition of AF drugs) | susceptibility of DSBR mutants compared to wildtype [2] | increase of MitoTracker fluorescence (S. cerevisiae; drug added to glucose-incubated (SC, 2% glucose) S. cerevisiae)
1 | CC(=O)O [acetate] | approximately 5 fold | – | – | – | – | – | – | – | – | – | – | – | – | – | – | – | – | – | – | –
2 | Cc1cc(C2CCCCC2)n(O)c(=O)c1 [CIC, cicloplrox olamine] | – | not observed | Resistant (″Resistant″ or ″Sensitive″ indicate at least a 5-fold CFU difference from wildtype at the final time point) | Normal | Resistant (″Resistant″ or ″Sensitive″ indicate at least a 5-fold CFU difference from wildtype at the final time point) | Resistant (″Resistant″ or ″Sensitive″ indicate at least a 5-fold CFU difference from wildtype at the final time point) | Resistant (″Resistant″ or ″Sensitive″ indicate at least a 5-fold CFU difference from wildtype at the final time point) | Normal | Resistant (″Resistant″ or ″Sensitive″ indicate at least a 5-fold CFU difference from wildtype at the final time point) | Resistant (″Resistant″ or ″Sensitive″ indicate at least a 5-fold CFU difference from wildtype at the final time point) | Resistant (″Resistant″ or ″Sensitive″ indicate at least a 5-fold CFU difference from wildtype at the final time point) | Resistant (″Resistant″ or ″Sensitive″ indicate at least a 5-fold CFU difference from wildtype at the final time point) | Resistant (″Resistant″ or ″Sensitive″ indicate at least a 5-fold CFU difference from wildtype at the final time point) | Resistant (″Resistant″ or ″Sensitive″ indicate at least a 5-fold CFU difference from wildtype at the final time point) | Resistant (″Resistant″ or ″Sensitive″ indicate at least a 5-fold CFU difference from wildtype at the final time point) | Resistant (″Resistant″ or ″Sensitive″ indicate at least a 5-fold CFU difference from wildtype at the final time point) | Resistant (″Resistant″ or ″Sensitive″ indicate at least a 5-fold CFU difference from wildtype at the final time point) | ~15 fold | particularly susceptible | 10 fold
